Test results from the NIST ThermoML archive (doi:10.1021/acs.jced.6b00450).

Experiments:
[1] = refractive index (Na D-line) (dimensionless); conditions: 101.33 kPa, Liquid, Standard Abbe refractometry
[2] = for viscosity / mass density: 101.33 kPa, Liquid; for viscosity: Concentric cylinders viscometry; for mass density: Vibrating tube method; for Glass transition temperature: DSC; for Normal melting temperature: Crystal, DTA

Cc1ccc(S(=O)(=O)[O-])cc1.N#CCCn1cc[nH+]c1 [1-(2-cyanoethyl)imidazolium 4-methylbenzenesulfonate]
Conditions | mass density, [2] [kg/m3] | refractive index, [1] | viscosity, [2] [mPa·s]
293.15 K | – | 1.54509 | –
298.15 K | – | 1.54414 | –
303.15 K | 1266.3 | 1.54297 | 24795
308.15 K | – | 1.54177 | –
313.15 K | 1259.6 | 1.54051 | 6910.9
318.15 K | – | 1.53926 | –
323.15 K | 1253 | 1.53798 | 2376.6
333.15 K | 1247.9 | – | 977.44
343.15 K | 1241.2 | – | 459.63
353.15 K | 1233.7 | – | 239.96
363.15 K | 1229.1 | – | 138.89
373.15 K | 1221.5 | – | 85.89

Conditions | Glass transition temperature [°C]
[2] | -57.34

CC(=O)[O-].N#CCCn1cc[nH+]c1 [1-(2-cyanoethyl)imidazolium acetate]
Conditions | mass density, [2] [kg/m3] | refractive index, [1] | viscosity, [2] [mPa·s]
293.15 K | 1127.7 | 1.48534 | 108.22
298.15 K | – | 1.48368 | –
303.15 K | 1120.5 | 1.48197 | 55.28
308.15 K | – | 1.48025 | –
313.15 K | 1113 | 1.47851 | 31.57
318.15 K | – | 1.4768 | –
323.15 K | 1105.2 | 1.47508 | 19.79
333.15 K | 1097.7 | – | 13.32
343.15 K | 1089.8 | – | 9.483
353.15 K | 1082 | – | 7.118
363.15 K | 1073.2 | – | 5.294
373.15 K | 1062.2 | – | 4.252

Conditions | Glass transition temperature [°C]
[2] | -78.12

N#CCCn1cc[nH+]c1.O=S(=O)([O-])O [1-(2-cyanoethyl)imidazolium hydrogen sulfate]
Conditions | mass density, [2] [kg/m3] | refractive index, [1] | viscosity, [2] [mPa·s]
293.15 K | 1429.4 | 1.5022 | 7937
298.15 K | – | 1.50138 | –
303.15 K | 1423.3 | 1.50034 | 3102.2
308.15 K | – | 1.49927 | –
313.15 K | 1417.4 | 1.49817 | 1397.9
318.15 K | – | 1.49708 | –
323.15 K | 1411.4 | 1.49599 | 707.69
333.15 K | 1405 | – | 394.22
343.15 K | 1398.8 | – | 236.85
353.15 K | 1393 | – | 151.62
363.15 K | 1385.9 | – | 102.28
373.15 K | 1378.6 | – | 72.1

Conditions | Glass transition temperature [°C]
[2] | -49.71

CS(=O)(=O)[O-].N#CCCn1cc[nH+]c1 [1-(2-cyanoethyl)imidazolium methanesulfonate]
[1]
Conditions | refractive index
293.15 K | 1.50224
298.15 K | 1.50096
303.15 K | 1.49962
308.15 K | 1.49826
313.15 K | 1.49686
318.15 K | 1.49547
323.15 K | 1.49402

Conditions | Glass transition temperature [°C]
[2] | -59.40

N#CCCn1cc[nH+]c1.O=C([O-])C(F)(F)F [1-(2-cyanoethyl)imidazolium trifluoroacetate]
Conditions | Normal melting temperature [°C]
[2] | -13.48

N#CCCn1cc[nH+]c1.O=S(=O)([O-])C(F)(F)F [1-(2-cyanoethyl)imidazolium trifluoromethanesulfonate]
Conditions | Normal melting temperature [°C]
[2] | 99.67

Cn1ccnc1.O=S(=O)(O)O [1-methylimidazolium hydrogen sulfate]
[1]
Conditions | refractive index
293.15 K | 1.48955
298.15 K | 1.48865
303.15 K | 1.48761
308.15 K | 1.48655
313.15 K | 1.48552
318.15 K | 1.48432
323.15 K | 1.48311

[2]
Conditions | Glass transition temperature [°C] | Normal melting temperature [°C]
– | -73.49 | 20.88
